pIC50: −log10 of the molar value. Calls of active or inactive are those of the source. The calls are words filed in the database; no cut-off is given here.
What was measured:
[1] = Apparent volume of distribution in male Balb/c mouse at 1 mg/kg, po measured upto 96 hrs by LC-MS/MS analysis; format: ADME, organism-based; conditions: in vivo
[2] = Sub-acute toxicity in Kunming mouse assessed as change CK level at 30 to 100 mg/kg administered via gavage once a day for 14 days; format: organism-based; conditions: in vivo, po, 336 h, dose 30-100 mg/kg, time 14 day
[3] = Tmax in male Balb/c mouse at 1 mg/kg, iv measured upto 96 hrs by LC-MS/MS analysis; format: ADME, organism-based; conditions: in vivo
[4] = AUC(0 to t) in male Balb/c mouse at 1 mg/kg, iv measured upto 96 hrs by LC-MS/MS analysis; format: ADME, organism-based; conditions: male, Balb/c, in vivo
[5] = Acute toxicity in Kunming mouse assessed as change in spleen structure at 300 mg/kg administered via gavage for 14 days by H and E staining based analysis; format: organism-based; conditions: in vivo, po, 336 h, time 14 day
[6] = Drug concentration in blood of male Balb/c mouse at 10 mg/kg, po measured at 1 hr postdose; format: ADME, organism-based; conditions: read-out: Ct
[7] = Acute toxicity in Kunming mouse assessed as change in cellular morphology of spleen at 100 mg/kg administered once a day via gavage for 14 days by H and E staining based analysis; format: organism-based; conditions: in vivo, po, 336 h, time 14 day
[8] = Acute toxicity in Kunming mouse assessed as change in cellular morphology of lung at 100 mg/kg administered once a day via gavage for 14 days by H and E staining based analysis; format: organism-based; conditions: in vivo, po, 336 h, time 14 day
[9] = Sub-acute toxicity in Kunming mouse assessed as change CREA2 level at 30 to 100 mg/kg administered via gavage once a day for 14 days; format: organism-based; conditions: in vivo, po, 336 h, dose 30-100 mg/kg, time 14 day
[10] = Sub-acute toxicity in Kunming mouse assessed as change ASTL level at 30 to 100 mg/kg administered via gavage once a day for 14 days; format: organism-based; conditions: in vivo, po, 336 h, dose 30-100 mg/kg, time 14 day
[11] = Sub-acute toxicity in Kunming mouse assessed as change ASTL level at 100 to 300 mg/kg administered via gavage for 14 days; format: organism-based; conditions: in vivo, po, 336 h, dose 100-300 mg/kg, time 14 day
[12] = target: Poly [ADP-ribose] polymerase 2 (Homo sapiens, UniProt Q9UGN5); assay: Inhibition of PARP2 (unknown origin) at 1 uM preincubated with compound for 10 mins followed by DNA and NAD+ addition and measured after 60 mins by chemiluminescence based envision reader analysis relative to control; conditions: time 70.0 min
[13] = Sub-acute toxicity in Kunming mouse assessed as change ALTL level at 30 to 100 mg/kg administered via gavage once a day for 14 days; format: organism-based; conditions: in vivo, po, 336 h, dose 30-100 mg/kg, time 14 day
[14] = Acute toxicity in Kunming mouse assessed as change in lung structure at 300 mg/kg administered via gavage for 14 days by H and E staining based analysis; format: organism-based; conditions: in vivo, po, 336 h, time 14 day
[15] = Sub-acute toxicity in Kunming mouse assessed as change LDH2 level at 30 to 100 mg/kg administered via gavage once a day for 14 days; format: organism-based; conditions: in vivo, po, 336 h, dose 30-100 mg/kg, time 14 day
[16] = Half life in male Balb/c mouse at 1 mg/kg, po measured upto 96 hrs by LC-MS/MS analysis; format: ADME, organism-based; conditions: male, Balb/c, in vivo
[17] = Acute toxicity in Kunming mouse assessed as change in liver structure at 300 mg/kg administered via gavage for 14 days by H and E staining based analysis; format: organism-based; conditions: in vivo, po, 336 h, time 14 day
[18] = Acute toxicity in Kunming mouse assessed as change in cellular morphology of liver at 100 mg/kg administered once a day via gavage for 14 days by H and E staining based analysis; format: organism-based; conditions: in vivo, po, 336 h, time 14 day
[19] = Sub-acute toxicity in Kunming mouse assessed as change ALTL level at 100 to 300 mg/kg administered via gavage for 14 days; format: organism-based; conditions: in vivo, po, 336 h, dose 100-300 mg/kg, time 14 day
[20] = Clearance in male Balb/c mouse at 1 mg/kg, po measured upto 96 hrs by LC-MS/MS analysis; format: ADME, organism-based; conditions: male, Balb/c, in vivo
[21] = Sub-acute toxicity in Kunming mouse assessed as change ALB2 level at 100 to 300 mg/kg administered via gavage for 14 days; format: organism-based; conditions: in vivo, po, 336 h, dose 100-300 mg/kg, time 14 day
MDA-MB-436 [22] = assay: Antitumor activity against luciferase tagged human MDA-MB-436 cells xenografted in female NOD-SCID mouse assessed as median survival time at 3 mg/kg, po administered once a day for 34 days; format: functional; conditions: time 34 day
[23] = target: Poly [ADP-ribose] polymerase 1 (Homo sapiens, UniProt P09874); assay: Inhibition of PARP1 (unknown origin) at 1 nM preincubated with compound for 10 mins followed by DNA and NAD+ addition and measured after 60 mins by chemiluminescence based envision reader analysis relative to control; conditions: time 70.0 min
[24] = Drug concentration in blood of male Balb/c mouse at 10 mg/kg, po measured at 6 hr postdose; format: ADME, organism-based; conditions: read-out: Ct
[25] = Sub-acute toxicity in Kunming mouse assessed as change LDH2 level at 100 to 300 mg/kg administered via gavage for 14 days; format: organism-based; conditions: in vivo, po, 336 h, dose 100-300 mg/kg, time 14 day
[26] = Sub-acute toxicity in Kunming mouse assessed as change CREA2 level at 100 to 300 mg/kg administered via gavage for 14 days; format: organism-based; conditions: in vivo, po, 336 h, dose 100-300 mg/kg, time 14 day
[27] = Sub-acute toxicity in Kunming mouse assessed as change UREAL level at 100 to 300 mg/kg administered via gavage for 14 days; format: organism-based; conditions: in vivo, po, 336 h, dose 100-300 mg/kg, time 14 day
[28] = Half life in male Balb/c mouse at 1 mg/kg, iv measured upto 96 hrs by LC-MS/MS analysis; format: ADME, organism-based; conditions: male, Balb/c, in vivo
[29] = Acute toxicity in Kunming mouse assessed as change in kidney structure at 300 mg/kg administered via gavage for 14 days by H and E staining based analysis; format: organism-based; conditions: in vivo, po, 336 h, time 14 day
[30] = Cmax in male Balb/c mouse at 1 mg/kg, iv measured upto 96 hrs by LC-MS/MS analysis; format: ADME, organism-based; conditions: in vivo
[31] = Acute toxicity in Kunming mouse assessed as change in cellular morphology of heart at 100 mg/kg administered once a day via gavage for 14 days by H and E staining based analysis; format: organism-based; conditions: in vivo, po, 336 h, time 14 day
[32] = Drug concentration in brain of male Balb/c mouse at 10 mg/kg, po measured at 1 hr postdose; format: ADME, organism-based; conditions: read-out: Ct
[33] = Acute toxicity in Kunming mouse assessed as change in heart structure at 300 mg/kg administered via gavage for 14 days by H and E staining based analysis; format: organism-based; conditions: in vivo, po, 336 h, time 14 day
[34] = Cmax in male Balb/c mouse at 1 mg/kg, po measured upto 96 hrs by LC-MS/MS analysis; format: ADME, organism-based; conditions: in vivo
[35] = Sub-acute toxicity in Kunming mouse assessed as change ALB2 level at 30 to 100 mg/kg administered via gavage once a day for 14 days; format: organism-based; conditions: in vivo, po, 336 h, dose 30-100 mg/kg, time 14 day
[36] = AUC(0 to t) in male Balb/c mouse at 1 mg/kg, po measured upto 96 hrs by LC-MS/MS analysis; format: ADME, organism-based; conditions: male, Balb/c, in vivo
[37] = Sub-acute toxicity in Kunming mouse assessed as change UREAL level at 30 to 100 mg/kg administered via gavage once a day for 14 days; format: organism-based; conditions: in vivo, po, 336 h, dose 30-100 mg/kg, time 14 day
MDA-MB-436 [38] = assay: Antitumor activity against human MDA-MB-436 cells xenografted in female NOD/SCID mouse assessed as tumor regression rate at 1 mg/kg, po administered once every other day for 28 days relative to control; format: functional; conditions: time 28.0 day
[39] = Tmax in male Balb/c mouse at 1 mg/kg, po measured upto 96 hrs by LC-MS/MS analysis; format: ADME, organism-based; conditions: in vivo
[40] = Oral bioavailability in male Balb/c mouse at 1 mg/kg measured upto 96 hrs by LC-MS/MS analysis; format: ADME, organism-based; conditions: in vivo
[41] = Acute toxicity in Kunming mouse assessed as change in cellular morphology of kidney at 100 mg/kg administered once a day via gavage for 14 days by H and E staining based analysis; format: organism-based; conditions: in vivo, po, 336 h, time 14 day
[42] = Sub-acute toxicity in Kunming mouse assessed as change CK level at 100 to 300 mg/kg administered via gavage for 14 days; format: organism-based; conditions: in vivo, po, 336 h, dose 100-300 mg/kg, time 14 day
[43] = Apparent volume of distribution in male Balb/c mouse at 1 mg/kg, iv measured upto 96 hrs by LC-MS/MS analysis; format: ADME, organism-based; conditions: male, Balb/c, in vivo, read-out: Vz
MDA-MB-436 [44] = assay: Antiproliferative activity against human MDA-MB-436 cells assessed as reduction in cell viability incubated for 7 days by CCK-8 assay; format: functional, cell-based; conditions: MDA-MB-436, 168 h
[45] = Drug concentration in brain of male Balb/c mouse at 10 mg/kg, po measured at 6 hr postdose; format: ADME, organism-based; conditions: read-out: Ct
[46] = Clearance in male Balb/c mouse at 1 mg/kg, iv measured upto 96 hrs by LC-MS/MS analysis; format: ADME, organism-based; conditions: male, Balb/c, in vivo

Sequence of Poly [ADP-ribose] polymerase 1 (P09874 whole entry): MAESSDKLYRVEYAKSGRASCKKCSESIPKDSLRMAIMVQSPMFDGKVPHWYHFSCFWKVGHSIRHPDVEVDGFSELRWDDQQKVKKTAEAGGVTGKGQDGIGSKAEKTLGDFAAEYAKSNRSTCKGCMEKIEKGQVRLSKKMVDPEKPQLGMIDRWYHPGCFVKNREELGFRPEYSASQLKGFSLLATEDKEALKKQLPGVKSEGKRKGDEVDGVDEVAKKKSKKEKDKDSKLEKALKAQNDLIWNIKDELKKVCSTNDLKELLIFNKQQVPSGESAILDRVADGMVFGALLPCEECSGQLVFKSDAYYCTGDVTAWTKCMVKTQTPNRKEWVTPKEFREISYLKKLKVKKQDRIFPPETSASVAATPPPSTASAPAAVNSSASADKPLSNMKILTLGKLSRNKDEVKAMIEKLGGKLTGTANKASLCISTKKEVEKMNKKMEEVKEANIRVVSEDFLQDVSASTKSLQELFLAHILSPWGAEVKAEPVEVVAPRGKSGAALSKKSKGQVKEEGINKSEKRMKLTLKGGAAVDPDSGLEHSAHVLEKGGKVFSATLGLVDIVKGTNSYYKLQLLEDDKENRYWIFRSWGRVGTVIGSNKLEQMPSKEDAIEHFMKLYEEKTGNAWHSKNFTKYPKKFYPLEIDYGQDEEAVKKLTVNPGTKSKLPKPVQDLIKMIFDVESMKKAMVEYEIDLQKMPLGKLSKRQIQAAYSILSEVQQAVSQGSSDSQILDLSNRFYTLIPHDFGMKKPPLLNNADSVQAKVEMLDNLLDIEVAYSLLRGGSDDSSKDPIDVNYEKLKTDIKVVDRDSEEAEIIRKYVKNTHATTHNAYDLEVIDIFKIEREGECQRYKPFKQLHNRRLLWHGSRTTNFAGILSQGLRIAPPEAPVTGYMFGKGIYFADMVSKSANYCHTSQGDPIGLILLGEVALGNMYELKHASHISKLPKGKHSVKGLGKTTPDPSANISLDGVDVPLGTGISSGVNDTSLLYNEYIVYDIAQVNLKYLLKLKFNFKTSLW
Sequence of Poly [ADP-ribose] polymerase 2 (Q9UGN5 whole entry): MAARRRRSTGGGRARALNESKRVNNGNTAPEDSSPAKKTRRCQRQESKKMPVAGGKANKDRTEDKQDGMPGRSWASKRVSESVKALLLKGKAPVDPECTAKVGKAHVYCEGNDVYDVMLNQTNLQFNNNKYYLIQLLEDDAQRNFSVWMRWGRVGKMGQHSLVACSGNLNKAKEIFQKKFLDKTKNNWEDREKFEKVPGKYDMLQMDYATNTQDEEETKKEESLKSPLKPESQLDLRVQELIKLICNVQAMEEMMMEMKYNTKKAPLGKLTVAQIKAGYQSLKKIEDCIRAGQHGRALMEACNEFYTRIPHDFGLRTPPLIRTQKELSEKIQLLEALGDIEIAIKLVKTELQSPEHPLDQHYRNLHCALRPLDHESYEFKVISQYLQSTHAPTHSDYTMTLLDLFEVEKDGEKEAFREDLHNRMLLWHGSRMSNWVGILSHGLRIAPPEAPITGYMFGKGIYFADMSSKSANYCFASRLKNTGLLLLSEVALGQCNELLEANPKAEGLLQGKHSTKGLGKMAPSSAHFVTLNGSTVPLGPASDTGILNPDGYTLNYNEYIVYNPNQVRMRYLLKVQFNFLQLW

SMILES: CNC(=O)c1ccc(N2CCN(Cc3ccc4nc(C)c(=O)[nH]c4c3F)CC2)c(F)n1 [AZD-9574]
- Vz [1]: 3.03 L/kg
- Activity [2]: Non-toxic
- Tmax [3]: 4.8 min
- AUC(0-t) at 96 h [4]: 4890 ng·h/mL
- Activity [5]: Non-toxic
- concentration at 1 h [6]: 3780 ng/mL
- Activity [7]: Non-toxic
- Activity [8]: Non-toxic
- Activity [9]: Non-toxic
- Activity [10]: Non-toxic
- Activity [11]: Non-toxic
- inhibition [12]: 38.1%
- Activity [13]: Non-toxic
- Activity [14]: Non-toxic
- Activity [15]: Non-toxic
- half-life [16]: 8.81 h
- Activity [17]: Non-toxic
- Activity [18]: Non-toxic
- Activity [19]: Non-toxic
- CL/F [20]: 4 mL/min/kg
- Activity [21]: Non-toxic
- Survival (MDA-MB-436 [22]): >65 days
- inhibition [23]: 63.7%
- concentration at 6 h [24]: 186 ng/mL
- Activity [25]: Non-toxic
- Activity [26]: Non-toxic
- Activity [27]: Non-toxic
- half-life [28]: 14.7 h
- Activity [29]: Non-toxic
- Cmax [30]: 941 ng/mL
- Activity [31]: Non-toxic
- concentration at 1 h [32]: 412 ng/g
- Activity [33]: Non-toxic
- Cmax [34]: 594 ng/mL
- Activity [35]: Non-toxic
- AUC(0-t) at 96 h [36]: 4180 ng·h/mL
- Activity [37]: Non-toxic
- Activity (MDA-MB-436 [38]): inactive
- Tmax [39]: 0.33 h
- bioavailability [40]: 85.5%
- Activity [41]: Non-toxic
- Activity [42]: Non-toxic
- Vd [43]: 3.64 L/kg
- pIC50 (MDA-MB-436 [44]): 8.17
- concentration at 6 h [45]: 48 ng/g
- clearance [46]: 3.17 mL/min/kg
